Assays:
Assay in all cases: KINOMEscan competition binding
Details in all cases: compound 10.0 µM
[1] = target: AURKB (human) (UniProt Q96GD4)
[2] = target: CAMKK1 (human) (UniProt Q8N5S9)
[3] = target: CAMKK2 (human) (UniProt Q96RR4)
[4] = target: CDK11B (human) (UniProt P21127)
[5] = target: CDK13 (human) (UniProt Q14004)
[6] = target: CDK19 (human) (UniProt Q9BWU1)
[7] = target: CSNK2A2 (human) (UniProt P19784)
[8] = target: DAPK3 (human) (UniProt O43293)
[9] = target: DCLK1 (human) (UniProt O15075)
[10] = target: DYRK1B (human) (UniProt Q9Y463)
[11] = target: EPHA6 (human) (UniProt Q9UF33)
[12] = target: EPHB2 (human) (UniProt P29323)
[13] = target: ERBB2 (human) (UniProt P04626)
[14] = target: FGFR3 (human) (UniProt P22607)
[15] = target: IRAK4 (human) (UniProt Q9NWZ3)
[16] = target: JAK3 JH1 catalytic (human) (UniProt P52333)
Chain of JAK3 JH1 catalytic (human) (P52333 whole entry, looked up): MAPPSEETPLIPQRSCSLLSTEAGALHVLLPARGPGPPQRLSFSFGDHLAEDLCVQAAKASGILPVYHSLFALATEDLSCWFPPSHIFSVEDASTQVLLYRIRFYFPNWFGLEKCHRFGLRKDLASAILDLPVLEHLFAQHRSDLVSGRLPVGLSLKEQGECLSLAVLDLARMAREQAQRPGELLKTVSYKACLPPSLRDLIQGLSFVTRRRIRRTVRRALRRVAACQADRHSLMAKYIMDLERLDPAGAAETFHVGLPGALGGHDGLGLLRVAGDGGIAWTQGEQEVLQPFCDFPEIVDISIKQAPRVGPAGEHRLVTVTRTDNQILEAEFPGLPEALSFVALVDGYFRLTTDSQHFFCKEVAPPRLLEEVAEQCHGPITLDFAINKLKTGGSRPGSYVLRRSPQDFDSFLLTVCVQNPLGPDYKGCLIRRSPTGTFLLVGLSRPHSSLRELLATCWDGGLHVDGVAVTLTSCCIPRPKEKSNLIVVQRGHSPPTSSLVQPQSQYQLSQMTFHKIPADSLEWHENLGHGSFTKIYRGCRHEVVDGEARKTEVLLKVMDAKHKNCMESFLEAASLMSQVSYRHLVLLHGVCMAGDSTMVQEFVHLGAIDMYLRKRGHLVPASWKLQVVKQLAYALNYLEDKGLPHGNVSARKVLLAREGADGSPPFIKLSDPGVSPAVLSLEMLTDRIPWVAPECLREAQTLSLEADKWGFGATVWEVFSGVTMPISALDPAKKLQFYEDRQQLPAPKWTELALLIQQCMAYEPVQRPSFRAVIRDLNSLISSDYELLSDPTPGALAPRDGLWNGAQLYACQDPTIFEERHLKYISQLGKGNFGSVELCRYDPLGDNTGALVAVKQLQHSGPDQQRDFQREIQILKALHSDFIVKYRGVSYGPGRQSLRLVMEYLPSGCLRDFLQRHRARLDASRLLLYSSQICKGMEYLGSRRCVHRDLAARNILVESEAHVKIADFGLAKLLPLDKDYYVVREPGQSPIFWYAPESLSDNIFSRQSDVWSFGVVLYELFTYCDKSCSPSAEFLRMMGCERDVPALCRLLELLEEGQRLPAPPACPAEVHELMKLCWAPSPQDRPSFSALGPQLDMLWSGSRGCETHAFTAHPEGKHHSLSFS

[17] = target: LIMK1 (human) (UniProt P53667)
[18] = target: MAP2K1 (human) (UniProt Q02750)
[19] = target: MAP2K5 (human) (UniProt Q13163)
[20] = target: MAP3K12 (human) (UniProt Q12852)
Chain of MAP3K12 (human) (Q12852 whole entry, looked up): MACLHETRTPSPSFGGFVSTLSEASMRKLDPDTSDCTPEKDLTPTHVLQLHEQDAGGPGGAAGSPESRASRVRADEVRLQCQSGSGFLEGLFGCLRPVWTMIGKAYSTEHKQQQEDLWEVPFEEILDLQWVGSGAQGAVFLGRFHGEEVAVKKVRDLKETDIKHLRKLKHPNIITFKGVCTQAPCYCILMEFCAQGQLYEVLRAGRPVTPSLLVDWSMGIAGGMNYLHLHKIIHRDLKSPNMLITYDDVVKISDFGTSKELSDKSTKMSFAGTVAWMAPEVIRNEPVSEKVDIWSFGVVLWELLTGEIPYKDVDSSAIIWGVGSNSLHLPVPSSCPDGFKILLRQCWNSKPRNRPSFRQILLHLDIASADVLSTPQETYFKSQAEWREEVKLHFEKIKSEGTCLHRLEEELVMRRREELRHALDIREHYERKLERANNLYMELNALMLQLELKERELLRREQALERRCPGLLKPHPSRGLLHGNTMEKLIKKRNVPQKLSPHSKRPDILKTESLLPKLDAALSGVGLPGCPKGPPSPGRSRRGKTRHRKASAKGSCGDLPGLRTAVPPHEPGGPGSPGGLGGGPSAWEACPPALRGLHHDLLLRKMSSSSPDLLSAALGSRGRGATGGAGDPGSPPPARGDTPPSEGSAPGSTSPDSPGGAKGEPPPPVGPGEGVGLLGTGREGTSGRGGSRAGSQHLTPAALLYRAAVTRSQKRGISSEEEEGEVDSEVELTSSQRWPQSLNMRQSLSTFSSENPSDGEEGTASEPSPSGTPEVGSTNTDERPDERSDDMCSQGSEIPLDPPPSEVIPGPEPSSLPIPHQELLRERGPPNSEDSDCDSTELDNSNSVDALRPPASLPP

[21] = target: MAP3K6 (human) (UniProt O95382)
Chain of MAP3K6 (human) (O95382 whole entry, looked up): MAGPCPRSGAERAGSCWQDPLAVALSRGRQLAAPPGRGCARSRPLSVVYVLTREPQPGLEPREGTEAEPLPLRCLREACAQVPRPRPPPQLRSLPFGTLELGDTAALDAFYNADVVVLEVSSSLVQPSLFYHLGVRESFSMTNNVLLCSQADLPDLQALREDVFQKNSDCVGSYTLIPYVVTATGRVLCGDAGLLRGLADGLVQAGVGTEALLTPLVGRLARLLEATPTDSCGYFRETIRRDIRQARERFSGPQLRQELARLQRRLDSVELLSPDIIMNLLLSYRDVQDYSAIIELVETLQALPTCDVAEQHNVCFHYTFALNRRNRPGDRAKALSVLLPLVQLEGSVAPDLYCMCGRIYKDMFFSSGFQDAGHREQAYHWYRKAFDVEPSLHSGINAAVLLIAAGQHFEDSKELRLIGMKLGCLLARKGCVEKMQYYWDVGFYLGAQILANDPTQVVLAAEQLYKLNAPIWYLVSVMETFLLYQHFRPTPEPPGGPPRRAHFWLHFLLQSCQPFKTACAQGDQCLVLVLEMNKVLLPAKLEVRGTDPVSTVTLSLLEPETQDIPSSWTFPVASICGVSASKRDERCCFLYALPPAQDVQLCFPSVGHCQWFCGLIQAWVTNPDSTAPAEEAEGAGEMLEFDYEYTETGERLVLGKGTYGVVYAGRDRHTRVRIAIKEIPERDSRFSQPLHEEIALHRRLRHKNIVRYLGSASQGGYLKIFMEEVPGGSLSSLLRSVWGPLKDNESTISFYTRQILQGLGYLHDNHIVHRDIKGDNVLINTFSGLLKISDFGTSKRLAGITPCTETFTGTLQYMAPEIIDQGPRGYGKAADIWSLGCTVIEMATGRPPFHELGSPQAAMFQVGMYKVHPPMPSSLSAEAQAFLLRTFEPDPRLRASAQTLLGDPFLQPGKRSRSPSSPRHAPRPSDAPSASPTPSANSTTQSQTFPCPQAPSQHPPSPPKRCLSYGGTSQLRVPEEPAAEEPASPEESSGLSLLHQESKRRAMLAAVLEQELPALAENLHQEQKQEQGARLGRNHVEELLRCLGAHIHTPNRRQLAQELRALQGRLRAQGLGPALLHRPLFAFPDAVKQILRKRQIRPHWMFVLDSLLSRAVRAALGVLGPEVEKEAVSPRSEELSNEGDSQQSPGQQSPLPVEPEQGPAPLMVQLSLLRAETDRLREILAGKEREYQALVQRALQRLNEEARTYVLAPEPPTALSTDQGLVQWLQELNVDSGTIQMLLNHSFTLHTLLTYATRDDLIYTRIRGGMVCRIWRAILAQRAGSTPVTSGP

[22] = target: MAP3K7 (human) (UniProt O43318)
[23] = target: MAPK9 (human) (UniProt P45984)
[24] = target: MARK2 (human) (UniProt Q7KZI7)
[25] = target: MET (human) (UniProt P08581)
[26] = target: MINK1 (human) (UniProt Q8N4C8)
[27] = target: MYLK4 (human) (UniProt Q86YV6)
[28] = target: PAK6 (human) (UniProt Q9NQU5)
[29] = target: PI4KB (human) (UniProt Q9UBF8)
[30] = system: PIK3CA (human), P42336 [M1043I]
[31] = target: PIM3 (human) (UniProt Q86V86)
[32] = target: PKMYT1 (human) (UniProt Q99640)
[33] = target: PRKAA1 (human) (UniProt Q13131)
[34] = target: PRKD2 (human) (UniProt Q9BZL6)
Chain of PRKD2 (human) (Q9BZL6 whole entry, looked up): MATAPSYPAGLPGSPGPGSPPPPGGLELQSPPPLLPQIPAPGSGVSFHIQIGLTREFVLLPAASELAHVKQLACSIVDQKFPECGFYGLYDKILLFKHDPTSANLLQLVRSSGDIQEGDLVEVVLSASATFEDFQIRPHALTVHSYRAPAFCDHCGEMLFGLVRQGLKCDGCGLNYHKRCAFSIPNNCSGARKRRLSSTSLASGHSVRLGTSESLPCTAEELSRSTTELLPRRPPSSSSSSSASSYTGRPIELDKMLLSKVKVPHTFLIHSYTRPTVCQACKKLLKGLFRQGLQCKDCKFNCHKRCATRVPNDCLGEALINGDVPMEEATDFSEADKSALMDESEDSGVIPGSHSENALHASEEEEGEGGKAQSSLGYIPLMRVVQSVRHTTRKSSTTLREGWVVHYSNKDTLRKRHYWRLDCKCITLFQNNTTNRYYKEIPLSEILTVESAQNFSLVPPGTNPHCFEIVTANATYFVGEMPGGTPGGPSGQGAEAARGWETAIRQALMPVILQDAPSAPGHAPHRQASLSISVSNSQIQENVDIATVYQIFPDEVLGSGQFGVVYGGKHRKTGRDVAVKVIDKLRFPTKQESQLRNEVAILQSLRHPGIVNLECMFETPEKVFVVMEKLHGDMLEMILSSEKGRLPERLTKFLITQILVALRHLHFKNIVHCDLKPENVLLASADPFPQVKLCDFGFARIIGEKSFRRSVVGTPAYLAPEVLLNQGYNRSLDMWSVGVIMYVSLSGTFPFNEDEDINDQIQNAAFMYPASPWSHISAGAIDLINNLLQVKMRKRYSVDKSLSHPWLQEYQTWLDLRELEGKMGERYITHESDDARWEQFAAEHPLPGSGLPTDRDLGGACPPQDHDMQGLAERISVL

[35] = target: ROCK2 (human) (UniProt O75116)
[36] = target: SLK (human) (UniProt Q9H2G2)
[37] = target: STK33 (human) (UniProt Q9BYT3)
[38] = target: TESK1 (human) (UniProt Q15569)
[39] = target: WEE2 (human) (UniProt P0C1S8)

Chain of CAMKK1 (human) (Q8N5S9 whole entry, looked up): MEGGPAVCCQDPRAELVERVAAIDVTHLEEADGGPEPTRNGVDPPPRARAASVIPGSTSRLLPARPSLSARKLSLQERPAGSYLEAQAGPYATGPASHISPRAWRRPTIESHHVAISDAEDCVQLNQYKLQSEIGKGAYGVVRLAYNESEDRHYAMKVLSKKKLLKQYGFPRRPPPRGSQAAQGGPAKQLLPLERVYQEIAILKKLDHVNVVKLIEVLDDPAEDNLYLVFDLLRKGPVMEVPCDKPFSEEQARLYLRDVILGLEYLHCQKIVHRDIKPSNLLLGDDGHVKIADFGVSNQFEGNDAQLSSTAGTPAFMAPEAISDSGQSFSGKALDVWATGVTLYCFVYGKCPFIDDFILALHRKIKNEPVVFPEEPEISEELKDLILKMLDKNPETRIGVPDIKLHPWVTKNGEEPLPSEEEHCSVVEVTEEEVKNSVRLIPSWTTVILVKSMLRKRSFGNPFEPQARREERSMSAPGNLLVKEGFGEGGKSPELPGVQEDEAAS
Chain of CSNK2A2 (human) (P19784 whole entry, looked up): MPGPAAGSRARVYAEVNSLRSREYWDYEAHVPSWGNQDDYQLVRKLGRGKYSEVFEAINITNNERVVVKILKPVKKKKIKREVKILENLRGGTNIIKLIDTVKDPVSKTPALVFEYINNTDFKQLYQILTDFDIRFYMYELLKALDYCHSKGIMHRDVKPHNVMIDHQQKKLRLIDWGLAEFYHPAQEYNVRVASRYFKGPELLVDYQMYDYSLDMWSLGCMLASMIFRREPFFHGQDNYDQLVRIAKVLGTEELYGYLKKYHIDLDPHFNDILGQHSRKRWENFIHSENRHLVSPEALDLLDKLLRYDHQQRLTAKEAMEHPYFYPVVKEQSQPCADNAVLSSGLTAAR

How did the kinase still bound, per cent of control [1] turn out when CCc1nc(-c2cccc(C)c2)c(-c2ccnc(NC(=O)c3ccccc3)c2)s1 was run?
Its kinase still bound, per cent of control is 100%.

And the kinase still bound, per cent of control [2]?
Its kinase still bound, per cent of control is 100%.

What about the kinase still bound, per cent of control [3] of the same compound?
Its kinase still bound, per cent of control is 100%.

What about the kinase still bound, per cent of control [4] of the same compound?
The kinase still bound, per cent of control was 88%.

And the kinase still bound, per cent of control [5]?
The kinase still bound, per cent of control was 100%.

And the kinase still bound, per cent of control [6]?
The kinase still bound, per cent of control was 91%.

What about the kinase still bound, per cent of control [7] of the same compound?
The kinase still bound, per cent of control was 86%.

What about the kinase still bound, per cent of control [8] of the same compound?
The kinase still bound, per cent of control was 83%.

And the kinase still bound, per cent of control [9]?
The kinase still bound, per cent of control was 96%.

What about the kinase still bound, per cent of control [10] of the same compound?
The kinase still bound, per cent of control was 90%.

What about the kinase still bound, per cent of control [11] of the same compound?
The kinase still bound, per cent of control was 47%.

What about the kinase still bound, per cent of control [12] of the same compound?
Its kinase still bound, per cent of control is 80%.

And the kinase still bound, per cent of control [13]?
The kinase still bound, per cent of control was 43%.

And the kinase still bound, per cent of control [14]?
The kinase still bound, per cent of control was 86%.

What about the kinase still bound, per cent of control [15] of the same compound?
Its kinase still bound, per cent of control is 100%.

What about the kinase still bound, per cent of control [16] of the same compound?
Its kinase still bound, per cent of control is 80%.

What about the kinase still bound, per cent of control [17] of the same compound?
The kinase still bound, per cent of control was 90%.

And the kinase still bound, per cent of control [18]?
Its kinase still bound, per cent of control is 86%.

And the kinase still bound, per cent of control [19]?
Its kinase still bound, per cent of control is 5.2%.

And the kinase still bound, per cent of control [20]?
The kinase still bound, per cent of control was 100%.

What about the kinase still bound, per cent of control [21] of the same compound?
The kinase still bound, per cent of control was 100%.

And the kinase still bound, per cent of control [22]?
The kinase still bound, per cent of control was 64%.

And the kinase still bound, per cent of control [23]?
The kinase still bound, per cent of control was 0%.

What about the kinase still bound, per cent of control [24] of the same compound?
Its kinase still bound, per cent of control is 100%.

What about the kinase still bound, per cent of control [25] of the same compound?
Its kinase still bound, per cent of control is 94%.

And the kinase still bound, per cent of control [26]?
Its kinase still bound, per cent of control is 8.4%.

And the kinase still bound, per cent of control [27]?
Its kinase still bound, per cent of control is 100%.

What about the kinase still bound, per cent of control [28] of the same compound?
Its kinase still bound, per cent of control is 98%.

What about the kinase still bound, per cent of control [29] of the same compound?
The kinase still bound, per cent of control was 100%.

What about the kinase still bound, per cent of control [30] of the same compound?
The kinase still bound, per cent of control was 95%.

And the kinase still bound, per cent of control [31]?
Its kinase still bound, per cent of control is 86%.

What about the kinase still bound, per cent of control [32] of the same compound?
Its kinase still bound, per cent of control is 64%.

And the kinase still bound, per cent of control [33]?
Its kinase still bound, per cent of control is 81%.

And the kinase still bound, per cent of control [34]?
The kinase still bound, per cent of control was 46%.

What about the kinase still bound, per cent of control [35] of the same compound?
Its kinase still bound, per cent of control is 100%.

And the kinase still bound, per cent of control [36]?
The kinase still bound, per cent of control was 41%.

And the kinase still bound, per cent of control [37]?
The kinase still bound, per cent of control was 97%.

What about the kinase still bound, per cent of control [38] of the same compound?
The kinase still bound, per cent of control was 81%.

What about the kinase still bound, per cent of control [39] of the same compound?
The kinase still bound, per cent of control was 100%.

Source: the kinase profiling compilation of Christmann-Franck et al. (2016)
